How the values were obtained:
[1] = molecular target: T1, ATP-dependent translocase ABCB1 (Mus musculus, UniProt P06795); test: Inhibition of P-glycoprotein, mouse L-mdr1b expressed in LLC-PK1 epithelial cells using calcein-AM polarisation assay; format: functional, cell-based
[2] = molecular target: T2, ATP-dependent translocase ABCB1 (Homo sapiens, UniProt P08183); test: Inhibition of P-gp was determined using rhodamine-assay in human CaCo-2 cells; format: functional, cell-based; parameters: concentration or dose not given beside the values
Target sequence in this assay (P08183 whole entry): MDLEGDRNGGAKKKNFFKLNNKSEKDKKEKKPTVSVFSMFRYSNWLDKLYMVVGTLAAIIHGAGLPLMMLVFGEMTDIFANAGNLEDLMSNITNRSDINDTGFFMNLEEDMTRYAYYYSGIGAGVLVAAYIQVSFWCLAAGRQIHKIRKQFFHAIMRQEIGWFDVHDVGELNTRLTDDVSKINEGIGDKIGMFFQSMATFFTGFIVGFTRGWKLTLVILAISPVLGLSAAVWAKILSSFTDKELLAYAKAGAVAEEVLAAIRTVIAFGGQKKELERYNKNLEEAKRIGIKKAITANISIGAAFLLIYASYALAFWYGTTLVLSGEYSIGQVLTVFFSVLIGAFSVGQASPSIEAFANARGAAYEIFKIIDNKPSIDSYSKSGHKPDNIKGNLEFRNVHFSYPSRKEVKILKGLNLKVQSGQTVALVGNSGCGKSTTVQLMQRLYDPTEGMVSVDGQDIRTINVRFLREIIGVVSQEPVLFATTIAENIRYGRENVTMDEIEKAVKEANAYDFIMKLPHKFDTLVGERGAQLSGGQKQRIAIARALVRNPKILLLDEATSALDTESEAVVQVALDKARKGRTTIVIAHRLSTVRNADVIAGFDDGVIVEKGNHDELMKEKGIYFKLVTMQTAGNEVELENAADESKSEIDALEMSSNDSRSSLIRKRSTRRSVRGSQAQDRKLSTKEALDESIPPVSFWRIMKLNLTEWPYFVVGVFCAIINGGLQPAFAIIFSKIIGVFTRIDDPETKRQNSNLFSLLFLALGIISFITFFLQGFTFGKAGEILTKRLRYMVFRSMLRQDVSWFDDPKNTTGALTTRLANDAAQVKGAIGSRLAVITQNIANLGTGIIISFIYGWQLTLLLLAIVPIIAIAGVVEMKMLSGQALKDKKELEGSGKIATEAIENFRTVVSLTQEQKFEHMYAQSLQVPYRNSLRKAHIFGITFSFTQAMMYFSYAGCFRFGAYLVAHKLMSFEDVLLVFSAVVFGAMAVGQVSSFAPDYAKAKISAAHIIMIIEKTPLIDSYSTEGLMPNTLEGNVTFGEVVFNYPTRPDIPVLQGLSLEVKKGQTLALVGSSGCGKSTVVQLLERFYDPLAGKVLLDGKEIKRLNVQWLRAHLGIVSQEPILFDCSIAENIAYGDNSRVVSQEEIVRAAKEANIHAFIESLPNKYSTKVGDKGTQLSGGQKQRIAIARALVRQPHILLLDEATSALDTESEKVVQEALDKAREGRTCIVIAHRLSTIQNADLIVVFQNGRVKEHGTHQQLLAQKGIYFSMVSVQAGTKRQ

[3] = molecular target: T2, ATP-dependent translocase ABCB1; test: Inhibition of P-glycoprotein using ATPase in MDR1 membranes; format: functional, cell membranes
Target sequence in this assay (P08183 whole entry): as above

[4] = molecular target: T2, ATP-dependent translocase ABCB1; test: Inhibition of P-glycoprotein, human L-MDR1 expressed in LLC-PK1 epithelial cells using calcein-AM polarisation assay; format: functional, cell-based
Target sequence in this assay (P08183 whole entry): as above

[5] = molecular target: T3, ATP-dependent translocase ABCB1 (Mus musculus, UniProt P21447); test: Inhibition of P-glycoprotein, mouse L-mdr1a expressed in LLC-PK1 epithelial cells using calcein-AM polarisation assay; format: functional, cell-based
T3 sequence (P21447 whole entry): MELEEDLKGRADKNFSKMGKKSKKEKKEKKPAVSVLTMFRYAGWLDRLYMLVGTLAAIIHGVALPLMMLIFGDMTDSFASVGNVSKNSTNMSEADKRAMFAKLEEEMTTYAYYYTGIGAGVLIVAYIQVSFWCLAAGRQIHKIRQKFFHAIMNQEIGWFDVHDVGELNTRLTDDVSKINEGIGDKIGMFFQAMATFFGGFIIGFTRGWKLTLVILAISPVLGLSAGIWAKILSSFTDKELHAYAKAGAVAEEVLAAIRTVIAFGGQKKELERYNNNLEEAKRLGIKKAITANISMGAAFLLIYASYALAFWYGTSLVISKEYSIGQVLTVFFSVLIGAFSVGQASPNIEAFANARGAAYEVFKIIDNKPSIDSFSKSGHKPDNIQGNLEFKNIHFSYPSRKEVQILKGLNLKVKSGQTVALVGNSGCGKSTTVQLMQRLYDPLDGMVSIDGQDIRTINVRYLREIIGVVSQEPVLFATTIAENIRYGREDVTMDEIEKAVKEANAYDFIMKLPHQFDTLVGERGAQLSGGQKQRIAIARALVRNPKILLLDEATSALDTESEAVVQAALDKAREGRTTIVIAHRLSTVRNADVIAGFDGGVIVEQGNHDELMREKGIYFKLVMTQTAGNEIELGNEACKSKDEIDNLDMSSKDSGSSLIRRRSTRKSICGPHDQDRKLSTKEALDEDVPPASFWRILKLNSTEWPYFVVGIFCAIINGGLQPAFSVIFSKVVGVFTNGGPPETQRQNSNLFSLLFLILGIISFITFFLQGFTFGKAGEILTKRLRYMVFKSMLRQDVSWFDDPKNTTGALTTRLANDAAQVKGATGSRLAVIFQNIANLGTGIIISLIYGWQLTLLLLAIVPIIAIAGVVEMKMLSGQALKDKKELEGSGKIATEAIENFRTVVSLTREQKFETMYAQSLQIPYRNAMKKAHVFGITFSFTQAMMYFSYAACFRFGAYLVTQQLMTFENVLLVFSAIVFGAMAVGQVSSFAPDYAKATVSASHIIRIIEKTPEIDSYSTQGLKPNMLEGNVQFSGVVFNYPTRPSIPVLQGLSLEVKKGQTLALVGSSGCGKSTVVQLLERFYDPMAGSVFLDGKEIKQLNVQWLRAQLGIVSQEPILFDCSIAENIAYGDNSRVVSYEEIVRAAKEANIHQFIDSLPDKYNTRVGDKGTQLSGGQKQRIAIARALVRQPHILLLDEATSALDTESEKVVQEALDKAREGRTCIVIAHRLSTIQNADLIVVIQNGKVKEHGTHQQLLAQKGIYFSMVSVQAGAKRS

[6] = molecular target: T3, ATP-dependent translocase ABCB1; test: TP_TRANSPORTER: inhibition of Calcein-AM efflux in Mdr1a-expressing LLC-PK1 cells; format: functional, cell-based
[7] = molecular target: T2, ATP-dependent translocase ABCB1; test: TP_TRANSPORTER: inhibition of Rhodamine 123 efflux in Caco-2 cells; format: functional, cell-based; parameters: concentration or dose not given beside the values; scale not given: the % may be the effect or the level left
Target sequence in this assay (P08183 whole entry): as the sequence (P08183 whole entry) above

[8] = molecular target: T2, ATP-dependent translocase ABCB1; test: TP_TRANSPORTER: inhibition of Calcein-AM efflux in MDR1-expressing LLC-PK1 cells; format: functional, cell-based
Target sequence in this assay (P08183 whole entry): as above

[9] = molecular target: T1, ATP-dependent translocase ABCB1; test: TP_TRANSPORTER: inhibition of Calcein-AM efflux in Mdr1b-expressing LLC-PK1 cells; format: functional, cell-based
[10] = Partition coefficient (logP); format: physicochemical; details: octanol/water
Cytochrome P450 3A4 = Cytochrome P450 3A4 (Homo sapiens, UniProt P08684)
Chain of Cytochrome P450 3A4 (P08684 whole entry): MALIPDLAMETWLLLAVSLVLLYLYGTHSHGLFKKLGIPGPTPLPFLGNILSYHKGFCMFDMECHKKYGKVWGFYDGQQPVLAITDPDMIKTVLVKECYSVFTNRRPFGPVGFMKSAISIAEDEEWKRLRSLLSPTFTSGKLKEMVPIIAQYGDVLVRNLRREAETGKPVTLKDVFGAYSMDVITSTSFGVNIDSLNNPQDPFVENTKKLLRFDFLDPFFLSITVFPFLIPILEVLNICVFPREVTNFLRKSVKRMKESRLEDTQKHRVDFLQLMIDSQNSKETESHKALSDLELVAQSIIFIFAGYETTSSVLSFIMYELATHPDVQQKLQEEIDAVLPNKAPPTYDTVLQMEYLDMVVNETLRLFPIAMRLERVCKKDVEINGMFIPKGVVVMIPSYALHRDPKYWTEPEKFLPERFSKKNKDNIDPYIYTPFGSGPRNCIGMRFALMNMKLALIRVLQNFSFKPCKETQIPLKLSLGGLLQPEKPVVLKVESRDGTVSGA
Description: Inhibition of human cytochrome P450 3A4

[11] = molecular target: T3, ATP-dependent translocase ABCB1; test: P-gp activity was measured by a direct transport assay, using polarized LLC-mdr1a epithelial cells; format: functional, cell-based; details: human, epithelial cell
[12] = molecular target: T3, ATP-dependent translocase ABCB1; test: P-gp activity was measured by a direct transport assay, using polarized LLC-PK1 epithelial cells; format: functional, cell-based; details: human
[13] = molecular target: T2, ATP-dependent translocase ABCB1; test: P-gp activity was measured by a direct transport assay, using polarized LLC-MDR1 epithelial cells; details: epithelial cell

T1 sequence (P06795 whole entry): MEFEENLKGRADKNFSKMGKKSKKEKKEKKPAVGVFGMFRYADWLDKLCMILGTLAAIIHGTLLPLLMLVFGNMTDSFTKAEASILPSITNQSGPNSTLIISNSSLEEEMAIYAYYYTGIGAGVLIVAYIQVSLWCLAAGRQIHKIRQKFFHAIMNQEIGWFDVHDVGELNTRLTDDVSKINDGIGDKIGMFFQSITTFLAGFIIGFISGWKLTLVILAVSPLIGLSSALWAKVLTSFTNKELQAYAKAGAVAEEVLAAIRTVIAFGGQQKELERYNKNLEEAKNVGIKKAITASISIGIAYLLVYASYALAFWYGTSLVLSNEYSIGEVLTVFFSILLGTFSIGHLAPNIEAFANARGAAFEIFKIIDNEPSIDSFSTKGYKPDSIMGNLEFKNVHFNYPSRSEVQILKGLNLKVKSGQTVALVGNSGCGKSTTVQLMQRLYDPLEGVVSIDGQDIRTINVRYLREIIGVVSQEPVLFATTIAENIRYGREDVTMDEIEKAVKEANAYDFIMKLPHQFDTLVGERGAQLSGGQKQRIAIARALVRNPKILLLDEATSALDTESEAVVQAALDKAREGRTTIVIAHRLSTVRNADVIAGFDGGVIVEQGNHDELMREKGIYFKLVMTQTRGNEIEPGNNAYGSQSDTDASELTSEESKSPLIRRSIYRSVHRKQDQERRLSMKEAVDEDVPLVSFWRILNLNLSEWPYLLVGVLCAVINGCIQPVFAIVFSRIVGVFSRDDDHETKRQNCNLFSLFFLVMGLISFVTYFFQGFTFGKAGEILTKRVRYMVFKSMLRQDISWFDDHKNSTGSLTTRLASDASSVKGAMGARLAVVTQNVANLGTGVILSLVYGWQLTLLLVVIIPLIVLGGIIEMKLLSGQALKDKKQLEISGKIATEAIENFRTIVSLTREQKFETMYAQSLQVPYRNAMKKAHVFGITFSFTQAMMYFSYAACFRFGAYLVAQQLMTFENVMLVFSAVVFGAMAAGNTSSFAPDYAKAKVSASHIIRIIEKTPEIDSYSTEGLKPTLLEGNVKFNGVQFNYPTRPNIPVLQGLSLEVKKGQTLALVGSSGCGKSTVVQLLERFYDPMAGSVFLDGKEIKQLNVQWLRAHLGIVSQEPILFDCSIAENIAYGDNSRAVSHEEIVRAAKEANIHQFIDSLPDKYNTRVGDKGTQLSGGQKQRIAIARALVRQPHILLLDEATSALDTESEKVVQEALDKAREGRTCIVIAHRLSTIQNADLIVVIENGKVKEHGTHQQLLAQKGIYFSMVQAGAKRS

| Structure (SMILES) | IC50 [1] [µM] | Inhibition [2] [%] | Activity [3] [nmol/min/mg] | IC50 [4] [µM] | IC50 [5] [µM] | IC50 [6] [µM] | Activity [7] [%] | IC50 [8] [µM] | IC50 [9] [µM] | logP [10] | logP ([10]; read-out: logP) | IC50 (Cytochrome P450 3A4) [µM] | Ratio [11] | Ratio [12] | Ratio [13] |
| --- | --- | --- | --- | --- | --- | --- | --- | --- | --- | --- | --- | --- | --- | --- | --- |
| COc1cc2c(c(OC)c1OC)-c1ccc(OC)c(=O)cc1[C@@H](NC(C)=O)CC2 [COLCHICINE] | > 50 | 8 | 0.1 | > 50 | > 50 | > 50 | 8 | > 50 | > 50 |  |  |  |  |  |  |
| CC[C@]1(O)C[C@@H]2CN(CCc3c([nH]c4ccccc34)[C@@](C(=O)OC)(c3cc4c(cc3OC)N(C)[C@H]3[C@@](O)(C(=O)OC)[C@H](OC(C)=O)[C@]5(CC)C=CCN6CC[C@]43[C@@H]65)C2)C1 [VINBLASTINE] | 8 | 75 | 33 |  | > 50 | > 50 | 75 |  | 8 | 5.2 |  |  |  |  |  |
| C[C@H]1O[C@@H](O[C@H]2[C@@H](O)C[C@H](O[C@H]3[C@@H](O)C[C@H](O[C@H]4CC[C@@]5(C)[C@H](CC[C@@H]6[C@@H]5C[C@@H](O)[C@]5(C)[C@@H](C7=CC(=O)OC7)CC[C@]65O)C4)O[C@@H]3C)O[C@@H]2C)C[C@H](O)[C@@H]1O [DIGOXIN] | > 50 |  |  |  | > 50 | > 50 |  |  | > 50 |  |  |  |  |  |  |
| COc1ccc(CCN2CCC(Nc3nc4ccccc4n3Cc3ccc(F)cc3)CC2)cc1 [ASTEMIZOLE] | 1.7 | 39 | 18 |  | 1.3 | 1.3 | 39 |  | 1.7 |  | 5.7 |  |  |  |  |
| O=c1[nH]c2ccccc2n1C1CCN(CCCC(c2ccc(F)cc2)c2ccc(F)cc2)CC1 [PIMOZIDE] | > 50 | 37 | 11 |  |  |  | 37 |  | > 50 |  |  |  |  |  |  |
| CC[C@H]1OC(=O)[C@H](C)[C@@H](O[C@H]2C[C@@](C)(OC)[C@@H](O)[C@H](C)O2)[C@H](C)[C@@H](O[C@@H]2O[C@H](C)C[C@H](N(C)C)[C@H]2O)[C@](C)(O)C[C@@H](C)C(=O)[C@H](C)[C@@H](O)[C@]1(C)O [ERYTHROMYCIN] |  |  | 4 |  | > 50 |  |  |  |  |  | 2.5 | 33 |  |  |  |
| CC1(C)S[C@@H]2[C@H](NC(=O)Cc3ccccc3)C(=O)N2[C@H]1C(=O)O [PENICILLIN G] |  |  |  |  |  |  |  |  |  |  |  |  | 1.1 |  |  |
| C[C@@H]1C[C@H]2[C@@H]3CCC4=CC(=O)C=C[C@]4(C)[C@@]3(F)[C@@H](O)C[C@]2(C)[C@@]1(O)C(=O)CO [DEXAMETHASONE] | > 50 | 0 | 4 | > 50 | > 50 | > 50 | 0 | > 50 | > 50 |  | 1.7 |  |  |  |  |
| Clc1ccc(COC(Cn2ccnc2)c2ccc(Cl)cc2Cl)c(Cl)c1 (stereo not drawn) [MICONAZOLE] |  | 22 | 1 |  | 7.8 | 7.8 | 22 |  |  |  | 5.8 |  |  |  |  |
| CN/C(=C\[N+](=O)[O-])NCCSCc1ccc(CN(C)C)o1 [RANITIDINE] | > 50 | 0 | -2.4 | > 50 | > 50 |  |  |  |  |  | 0.6 |  |  |  |  |
| COCC(=O)O[C@]1(CCN(C)CCCc2nc3ccccc3[nH]2)CCc2cc(F)ccc2[C@@H]1C(C)C [MIBEFRADIL] | 10 | 60 | 8.9 |  | 7.4 | 7.4 | 60 |  | 10 | 6.2 |  |  |  |  |  |
| CCC(C)n1ncn(-c2ccc(N3CCN(c4ccc(OC[C@H]5CO[C@](Cn6cncn6)(c6ccc(Cl)cc6Cl)O5)cc4)CC3)cc2)c1=O (stereo partly drawn) [ITRACONAZOLE] |  | 2 | 18 |  | 0.2 |  |  |  |  |  | 6.5 |  |  |  |  |
| CC1(C)SSC(C)(C)[C@@H](NC(=O)[C@@H](N)Cc2ccc(O)cc2)C(=O)NCC(=O)N[C@@H](Cc2ccccc2)C(=O)N[C@H]1C(=O)O | > 50 | 0 | 4 |  | > 50 | > 50 | 0 |  | > 50 |  | 1 | > 50 | 0.9 | 0.8 | 0.6 |
| COC(=O)C1=C(C)NC(C)=C(C(=O)OCCN(C)Cc2ccccc2)C1c1cccc([N+](=O)[O-])c1 (stereo not drawn) [NICARDIPINE] | 8 |  | 18 |  | 2.5 | 2.5 | 100 |  | 8 |  | 5.5 |  |  |  |  |
| C=C[C@H]1C[N@@]2CC[C@H]1C[C@@H]2[C@@H](O)c1ccnc2ccc(OC)cc12 [QUINIDINE] | 10 |  | 20 |  | 13 | 13 |  |  | 10 |  | 2.8 |  |  |  |  |
| CNC(=C[N+](=O)[O-])NCCSCc1ccc(CN(C)C)o1 [RANITIDINE] |  |  |  |  |  | > 50 | 0 | > 50 | > 50 |  |  |  |  |  |  |
| Clc1ccccc1C(c1ccccc1)(c1ccccc1)n1ccnc1 [CLOTRIMAZOLE] | 3.5 | 29 | 7.5 |  | 4.8 | 4.8 | 29 |  | 3.5 |  | 5.3 |  |  |  |  |
| Cc1ncc2n1-c1ccc(Cl)cc1C(c1ccccc1F)=NC2 [MIDAZOLAM] | 33 | 12 | 6 | > 50 | > 50 | > 50 | 12 | > 50 | 33 |  | 3.3 |  |  |  |  |
| Cc1c(O)cccc1C(=O)N[C@@H](CSc1ccccc1)[C@H](O)CN1C[C@H]2CCCC[C@H]2C[C@H]1C(=O)NC(C)(C)C |  | 30 | 6.2 |  | 2.3 | 2.3 | 30 |  |  | 5.8 |  |  |  |  |  |
| CC(C)c1nc(CN(C)C(=O)N[C@H](C(=O)N[C@@H](Cc2ccccc2)C[C@H](O)[C@H](Cc2ccccc2)NC(=O)OCc2cncs2)C(C)C)cs1 [RITONAVIR] |  |  |  |  |  |  |  |  |  |  | 4.9 |  |  |  |  |
| CCC(C)n1ncn(-c2ccc(N3CCN(c4ccc(OCC5COC(Cn6cncn6)(c6ccc(Cl)cc6Cl)O5)cc4)CC3)cc2)c1=O (stereo not drawn) [ITRACONAZOLE] |  |  |  |  |  | 0.2 | 2 |  |  |  |  |  |  |  |  |
| CN/C(=N/CCSCc1nc[nH]c1C)NC#N [CIMETIDINE] | > 50 | 4 | 2.8 |  |  |  | 4 |  | > 50 |  |  |  |  |  |  |
| CC(C)(C)c1ccc(C(O)CCCN2CCC(C(O)(c3ccccc3)c3ccccc3)CC2)cc1 (stereo not drawn) [TERFENADINE] | 2 |  | 0.4 |  |  |  |  |  | 2 |  | 5.7 |  |  |  |  |
| CC(C)(C)NC(=O)[C@@H]1C[C@@H]2CCCC[C@@H]2CN1C[C@@H](O)[C@H](Cc1ccccc1)NC(=O)[C@H](CC(N)=O)NC(=O)c1ccc2ccccc2n1 | > 50 | 43 | 30 |  |  |  | 43 |  | > 50 |  | 4.7 |  |  |  |  |
| COc1cc([C@@H]2c3cc4c(cc3[C@@H](O[C@@H]3O[C@@H]5CO[C@@H](C)O[C@H]5[C@H](O)[C@H]3O)[C@H]3COC(=O)[C@H]23)OCO4)cc(OC)c1O [ETOPOSIDE] | > 50 |  | -0.2 |  |  |  |  |  | > 50 |  | 0.6 |  |  |  |  |

From ChEMBL document CHEMBL1136781, “Comparison of in vitro P-glycoprotein screening assays: recommendations for their use in drug discovery” (J Med Chem, 2003)
